Results reported in US7166299B2, “Preparation of aqueous clear solution dosage forms with bile acids” (priority 1998, dated 2007).
“And” between values parts separate entries of the source, which are not always exact repeats. Equal entries are not always repeated.

Assay: Solution stability test (HPLC) of UDCA, branched chained amino acids and maltodextrin solution, Example IV
Type: physicochemical
Method: The stability tests were conducted on three different aqueous solution systems: […]. A bile acid and a high molecular weight aqueous soluble starch conversion product were combined in aqueous solution according to Example I, with results as shown in Tables 1A and 1B. • 2. Mixed bile acids and high molecular weight aqueous soluble starch conversion products were combined in aqueous solution according to Example II, with results as shown in Table 2. • 3. Bile acids, high molecular weight aqueous soluble starch conversion products and branched chained amino acids (e.g. leucine, isoleucine, valine, or other amino acid with a branched side chain) were combined in aqueous solution according to Example IV, with results as shown in Tables 3A through 3F. The stability tests were performed with HPLC and microscope light at various pH conditions under the normal and accelerated conditions. Accelerated conditions for testing pharmaceutical compositions have been described (Remington, The Science and Practice of Pharmacy, 19th ed., p. 640). […] Thus, the formulations of the examples are suitable for preparing a commercial liquid dosage form. […] Some formulations remain stable for over 2 years. Moreover, the solution stability tests were conducted on the aqueous solution dosage forms comprising the mixture of aqueous soluble UDCA, branched chained amino acid (leucine, isoleucine, valine) and maltodextrin according to example IV as a typical example of the solution dosage forms in which bile acid as a therapeutically active agent, as an adjuvant or carrier, pharmaceutically active agent, or enhancer of solubility, and high molecular weight aqueous soluble starch conversion products or soluble non-starch polysaccharides are dissolved. According to the test results, there is no discoloration, no clarity changes, and no precipitation. […] In the tables, the concentration of the indicated bile acid salt for each of the three numbered trials and the average thereof is reported on each line. The percentage indicates the relative concentration of the bile acid salt after incubation for a certain amount of time in comparison with the initial concentration. 85 mL of the aqueous solution in which soluble UDCA is dissolved was prepared, and then maltodextrin was added into the clear solution. Into the resulting clear solution, branched amino acids were added with adjusting the pH (4–7) with agitation and then sweetener, preservatives, and flavoring agent were added. Purified water was added to adjust the total volume to be 100 mL. Tables 3A to 3F show stability test results over time of formulation prepared with amino acids according to Example IV. All stability tests were conducted at 50° C. Stability test results at pH 1 (Table 3A), pH 3 (Table 3B), pH 5 (Table 3C), pH 7 (Table 3D), pH 9 (Table 3E), and pH 10 (Table 3F) are shown.

- Percentage of day 0 concentration (Table 3A: pH1, 50° C., day 0): 100.0%
- concentration by HPLC, Average (Table 3A: pH1, 50° C., day 0): 0.248
- concentration by HPLC, trials #1-#3 (Table 3A: pH1, 50° C., day 0): 0.261 and 0.236 and 0.249
- Percentage of day 0 concentration (Table 3A: pH1, 50° C., day 1): 105.0%
- concentration by HPLC, Average (Table 3A: pH1, 50° C., day 1): 0.261
- concentration by HPLC, trials #1-#3 (Table 3A: pH1, 50° C., day 1): 0.256 and 0.275 and 0.251
- Percentage of day 0 concentration (Table 3A: pH1, 50° C., day 2): 104.9%
- concentration by HPLC, Average (Table 3A: pH1, 50° C., day 2): 0.260
- concentration by HPLC, trials #1-#3 (Table 3A: pH1, 50° C., day 2): 0.268 and 0.263 and 0.251
- Percentage of day 0 concentration (Table 3A: pH1, 50° C., day 6): 114.6%
- concentration by HPLC, Average (Table 3A: pH1, 50° C., day 6): 0.285
- concentration by HPLC, trials #1-#3 (Table 3A: pH1, 50° C., day 6): 0.295 and 0.268 and 0.291
- Percentage of day 0 concentration (Table 3A: pH1, 50° C., day 7): 103.4%
- concentration by HPLC, Average (Table 3A: pH1, 50° C., day 7): 0.257
- concentration by HPLC, trials #1-#3 (Table 3A: pH1, 50° C., day 7): 0.249 and 0.254 and 0.267
- Percentage of day 0 concentration (Table 3A: pH1, 50° C., day 8): 98.8%
- concentration by HPLC, Average (Table 3A: pH1, 50° C., day 8): 0.245
- concentration by HPLC, trials #1-#3 (Table 3A: pH1, 50° C., day 8): 0.253 and 0.243 and 0.240
- Percentage of day 0 concentration (Table 3A: pH1, 50° C., day 9): 106.6%
- concentration by HPLC, Average (Table 3A: pH1, 50° C., day 9): 0.265
- concentration by HPLC, trials #1-#3 (Table 3A: pH1, 50° C., day 9): 0.263 and 0.268
- Percentage of day 0 concentration (Table 3B: pH 3, 50° C., day 0): 100.0%
- concentration by HPLC, Average (Table 3B: pH 3, 50° C., day 0): 0.256
- concentration by HPLC, trials #1-#3 (Table 3B: pH 3, 50° C., day 0): 0.261 and 0.254 and 0.253
- Percentage of day 0 concentration (Table 3B: pH 3, 50° C., day 1): 103.3%
- concentration by HPLC, Average (Table 3B: pH 3, 50° C., day 1): 0.265
- concentration by HPLC, trials #1-#3 (Table 3B: pH 3, 50° C., day 1): 0.266 and 0.268 and 0.261
- Percentage of day 0 concentration (Table 3B: pH 3, 50° C., day 2): 99.3%
- concentration by HPLC, Average (Table 3B: pH 3, 50° C., day 2): 0.254
- concentration by HPLC, trials #1-#3 (Table 3B: pH 3, 50° C., day 2): 0.273 and 0.243 and 0.247
- Percentage of day 0 concentration (Table 3B: pH 3, 50° C., day 6): 117.4%
- concentration by HPLC, Average (Table 3B: pH 3, 50° C., day 6): 0.301
- concentration by HPLC, trials #1-#3 (Table 3B: pH 3, 50° C., day 6): 0.296 and 0.306 and 0.300
- Percentage of day 0 concentration (Table 3B: pH 3, 50° C., day 7): 100.0%
- concentration by HPLC, Average (Table 3B: pH 3, 50° C., day 7): 0.256
- concentration by HPLC, trials #1-#3 (Table 3B: pH 3, 50° C., day 7): 0.247 and 0.265 and 0.257
- Percentage of day 0 concentration (Table 3B: pH 3, 50° C., day 8): 96.7%
- concentration by HPLC, Average (Table 3B: pH 3, 50° C., day 8): 0.248
- concentration by HPLC, trials #1-#3 (Table 3B: pH 3, 50° C., day 8): 0.250 and 0.247
- Percentage of day 0 concentration (Table 3B: pH 3, 50° C., day 13): 100.9%
- concentration by HPLC, Average (Table 3B: pH 3, 50° C., day 13): 0.258
- concentration by HPLC, trials #1-#3 (Table 3B: pH 3, 50° C., day 13): 0.285 and 0.240 and 0.250
- Percentage of day 0 concentration (Table 3C: pH 5, 50° C., day 0): 100.0%
- concentration by HPLC, Average (Table 3C: pH 5, 50° C., day 0): 0.279
- concentration by HPLC, trials #1-#3 (Table 3C: pH 5, 50° C., day 0): 0.285 and 0.258 and 0.295
- Percentage of day 0 concentration (Table 3C: pH 5, 50° C., day 3): 99.0%
- concentration by HPLC, Average (Table 3C: pH 5, 50° C., day 3): 0.277
- concentration by HPLC, trials #1-#3 (Table 3C: pH 5, 50° C., day 3): 0.280 and 0.275
- Percentage of day 0 concentration (Table 3C: pH 5, 50° C., day 6): 98.7%
- concentration by HPLC, Average (Table 3C: pH 5, 50° C., day 6): 0.276
- concentration by HPLC, trials #1-#3 (Table 3C: pH 5, 50° C., day 6): 0.285 and 0.273 and 0.270
- Percentage of day 0 concentration (Table 3C: pH 5, 50° C., day 10): 98.4%
- concentration by HPLC, Average (Table 3C: pH 5, 50° C., day 10): 0.275
- concentration by HPLC, trials #1-#3 (Table 3C: pH 5, 50° C., day 10): 0.274 and 0.276
- Percentage of day 0 concentration (Table 3C: pH 5, 50° C., day 13): 100.0%
- concentration by HPLC, Average (Table 3C: pH 5, 50° C., day 13): 0.279
- concentration by HPLC, trials #1-#3 (Table 3C: pH 5, 50° C., day 13): 0.273 and 0.287 and 0.278
- Percentage of day 0 concentration (Table 3C: pH 5, 50° C., day 17): 98.3%
- concentration by HPLC, Average (Table 3C: pH 5, 50° C., day 17): 0.275
- concentration by HPLC, trials #1-#3 (Table 3C: pH 5, 50° C., day 17): 0.278 and 0.276 and 0.270
- Percentage of day 0 concentration (Table 3C: pH 5, 50° C., day 20): 95.0%
- concentration by HPLC, Average (Table 3C: pH 5, 50° C., day 20): 0.266
- concentration by HPLC, trials #1-#3 (Table 3C: pH 5, 50° C., day 20): 0.261 and 0.275
- Percentage of day 0 concentration (Table 3C: pH 5, 50° C., day 24): 99.3%
- concentration by HPLC, Average (Table 3C: pH 5, 50° C., day 24): 0.277
- concentration by HPLC, trials #1-#3 (Table 3C: pH 5, 50° C., day 24): 0.267 and 0.274 and 0.292
- Percentage of day 0 concentration (Table 3D: pH 7, 50° C., day 0): 100.0%
- concentration by HPLC, Average (Table 3D: pH 7, 50° C., day 0): 0.289
- concentration by HPLC, trials #1-#3 (Table 3D: pH 7, 50° C., day 0): 0.296 and 0.289 and 0.281
- Percentage of day 0 concentration (Table 3D: pH 7, 50° C., day 5): 99.7%
- concentration by HPLC, Average (Table 3D: pH 7, 50° C., day 5): 0.288
- concentration by HPLC, trials #1-#3 (Table 3D: pH 7, 50° C., day 5): 0.300 and 0.282 and 0.281
- Percentage of day 0 concentration (Table 3D: pH 7, 50° C., day 8): 95.5%
- concentration by HPLC, Average (Table 3D: pH 7, 50° C., day 8): 0.276
- concentration by HPLC, trials #1-#3 (Table 3D: pH 7, 50° C., day 8): 0.277 and 0.282 and 0.268
- Percentage of day 0 concentration (Table 3D: pH 7, 50° C., day 12): 95.8%
- concentration by HPLC, Average (Table 3D: pH 7, 50° C., day 12): 0.277
- concentration by HPLC, trials #1-#3 (Table 3D: pH 7, 50° C., day 12): 0.273 and 0.278
- Percentage of day 0 concentration (Table 3D: pH 7, 50° C., day 15): 93.5%
- concentration by HPLC, Average (Table 3D: pH 7, 50° C., day 15): 0.270
- concentration by HPLC, trials #1-#3 (Table 3D: pH 7, 50° C., day 15): 0.271 and 0.273 and 0.266
- Percentage of day 0 concentration (Table 3D: pH 7, 50° C., day 19): 99.3%
- concentration by HPLC, Average (Table 3D: pH 7, 50° C., day 19): 0.287
- concentration by HPLC, trials #1-#3 (Table 3D: pH 7, 50° C., day 19): 0.294 and 0.285 and 0.281
- Percentage of day 0 concentration (Table 3E: pH 9, 50° C., day 0): 100.0%
- concentration by HPLC, Average (Table 3E: pH 9, 50° C., day 0): 0.286
- concentration by HPLC, trials #1-#3 (Table 3E: pH 9, 50° C., day 0): 0.291 and 0.286 and 0.282
- Percentage of day 0 concentration (Table 3E: pH 9, 50° C., day 3): 95.6%
- concentration by HPLC, Average (Table 3E: pH 9, 50° C., day 3): 0.273
- concentration by HPLC, trials #1-#3 (Table 3E: pH 9, 50° C., day 3): 0.266 and 0.273 and 0.282
- Percentage of day 0 concentration (Table 3E: pH 9, 50° C., day 6): 95.9%
- concentration by HPLC, Average (Table 3E: pH 9, 50° C., day 6): 0.274
- concentration by HPLC, trials #1-#3 (Table 3E: pH 9, 50° C., day 6): 0.277 and 0.274 and 0.272
- Percentage of day 0 concentration (Table 3E: pH 9, 50° C., day 10): 91.2%
- concentration by HPLC, Average (Table 3E: pH 9, 50° C., day 10): 0.261
- concentration by HPLC, trials #1-#3 (Table 3E: pH 9, 50° C., day 10): 0.243 and 0.245 and 0.295
- Percentage of day 0 concentration (Table 3E: pH 9, 50° C., day 13): 87.4%
- concentration by HPLC, Average (Table 3E: pH 9, 50° C., day 13): 0.250
- concentration by HPLC, trials #1-#3 (Table 3E: pH 9, 50° C., day 13): 0.246 and 0.269 and 0.236
- Percentage of day 0 concentration (Table 3E: pH 9, 50° C., day 17): 93.1%
- concentration by HPLC, Average (Table 3E: pH 9, 50° C., day 17): 0.267
- concentration by HPLC, trials #1-#3 (Table 3E: pH 9, 50° C., day 17): 0.275 and 0.280 and 0.245
- Percentage of day 0 concentration (Table 3F: pH 10, 50° C., day 0): 100.0%
- concentration by HPLC, Average (Table 3F: pH 10, 50° C., day 0): 0.287
- concentration by HPLC, trials #1-#3 (Table 3F: pH 10, 50° C., day 0): 0.292
- Percentage of day 0 concentration (Table 3F: pH 10, 50° C., day 2): 84.7%
- concentration by HPLC, Average (Table 3F: pH 10, 50° C., day 2): 0.243
- Percentage of day 0 concentration (Table 3F: pH 10, 50° C., day 5): 76.0%
- concentration by HPLC, Average (Table 3F: pH 10, 50° C., day 5): 0.218
- Percentage of day 0 concentration (Table 3F: pH 10, 50° C., day 7): 74.5%
- concentration by HPLC, Average (Table 3F: pH 10, 50° C., day 7): 0.214
- Percentage of day 0 concentration (Table 3F: pH 10, 50° C., day 9): 70.2%
- concentration by HPLC, Average (Table 3F: pH 10, 50° C., day 9): 0.202
- concentration by HPLC, trials #1-#3 (Table 3F: pH 10, 50° C., day 9): 0.206 and 0.192 and 0.207
SMILES: CC[C@H](C)[C@H](N)C(=O)O [Ile, isoleucine]
